Starred links: 1 amine or outer side, 2 acyl side, 3 side chain; linkers in the order of their positions; H or OH if unused. Non-standard residues stand in square brackets, D forms with d. Residues, ends and D or L forms follow the SMILES beside them. *: point of attachment. EDDnp = O=[N+]([O-])c1ccc(NCCN*)c([N+](=O)[O-])c1; PABC = O=C(OCc1ccc(N[*:1])cc1)[*:2]; X1 = [N-]=[N+]=NCCOCCOCCOCC(=O)*; Cit = NC(=O)NCCC[C@H](N)C(=O)O; AEEEA = NCCOCCOCCOCC(=O)O
Tests used:
[1] = Plasma stability test using pyrene probes, BALB/c mouse plasma; format: in vitro ADME; conditions: undiluted BALB/c mouse plasma, 37° C., HPLC
Experimental: To test this hypothesis, a panel of peptide probes containing a various amino acid at the P3 position were evaluated for plasma stability at the small-molecule level (FIG. 13B). VCit- and tripeptide probes 12a-f were first synthesized by standard solid- and liquid-phase peptide synthesis and following carbamate formation. These model probes consisted of a XVCit-PABC unit where X is none (12a), serine (12b), glutamic acid (12c), aspartic acid (12d), lysine (12e), or hydroxyacetylglycine (12f). It was assumed that serine and hydroxyacetylglycine would serve as a mimic of the hydroxy-functionalized tripeptide ADC linker with increased mouse plasma stability reported by Dorywalska et al (Dorywalska et al., 2016). In particular, the 2-hydroxyacetamide group within probe 12f is the modifier that provided the greatest stability in their report. These linkers were covalently linked to 1-pyrenemethylamine, a surrogate of hydrophobic payloads with distinct UV absorbance at 341 nm (van Geel et al., 2015). Subsequently, probes 12a-f were incubated in undiluted BALB/c plasma at 37° C. and the amount of each probe was monitored by HPLC (FIG. 13C). […] Taking into account that all probes tested were stable in human plasma and no significant degradation was observed after 2 days (FIG. 14A), the accelerated degradation observed in KVCit probe 12e may indicate that a basic side chain at the P3 position provides an additional interaction with Ces1c leading to fast bond cleavage. […] Thus, the stabilizing effect of a neutral carbonyl group at the P3 position was not as significant as that of a negatively charged carboxylic acid side chain.
Plasma stability test using pyrene probes. Each test compound (10 mM in DMSO, 2 μL) was mixed with 1 μL of 1-pyrenemethylamine (10 mM in DMSO, as an internal standard) and incubated at 37° C. for 10 min. Pooled healthy human plasma or BALB/c mouse plasma (197 μL, Innovative Research) was added to the mixture, followed by incubation at 37° C. Aliquots (10 μL) were collected at each time point (0, 1, 6, 24, 48, and 96 h) and 40 μL of cold acetonitrile containing 1% formic acid was added to precipitate proteins. Supernatant of each sample was obtained and analyzed for quantification by analytical HPLC as described above. All assays were performed at least three times in technical duplicate, and data shown are representative of the replicates.

human cathepsin B = human cathepsin B (Homo sapiens, UniProt P07858); experiment: Cathepsin B-mediated cleavage of linear and branched probes in FRET assay; format: biochemical; conditions: for Slope (RFU/sec): quencher (EdDnp) release rate, linear regression, triplicate; for release of EdDnp in the presence of human cathepsin B: result in words
Experimental: FIG. 2. Quencher release rate determination in Förster resonance energy transfer (FRET) assay. Each slope reflecting drug (quencher) release rate was calculated by linear regression using Graph Pad Prism 7 software. […] All assays were performed in triplicate and error bars represent SEM.
These model linker units consisted of cathepsin B-cleavable valine-citrulline (Val-Cit) with or without polyethyleneglycol (PEG) spacers. This dipeptide sequence has been used in many successful ADCs including the FDA-approved ADC Adcetris® (Katz et al., 2011). The sequence is stable in circulation but in lysosomes undergoes cathepsin B-mediated cleavage, resulting in intracellular release of payload (Dubowchik et al., 2002). Tryptophan and 2,4-dinitrophenylethylenediamine (EdDnp) were installed as a fluorophore/quencher(s) pair, which is commonly used in the Förster resonance energy transfer (FRET) assay. The release of EdDnp from each synthetic model linker unit in the presence of human cathepsin B (Table 1 and Scheme 3) was assessed. […] Without wishing to be bound by any theory, it is surmised that the structural congestion of branched probe 3 due to the lack of PEG spacers prevents cathepsin B accessing Val-Cit moieties.

Human liver cathepsin B = target: T1, Human liver cathepsin B (Homo sapiens, UniProt P07858); experiment: Cathepsin B-mediated cleavage assay using pyrene probes; format: biochemical; conditions: 37° C., result in words
T1 construct: Human liver cathepsin B (20 ng/μL, 100 μL, EMD Millipore); purchased EMD Millipore; host or cells: human liver (tissue-derived, as the name says)
Experimental: Next, all probes were tested for responsiveness to human cathepsin B-mediated cleavage (FIG. 14B).
Cathepsin B-mediated cleavage assay using pyrene probes. Each test compound (10 mM in DMSO, 2 μL) was mixed with 97 μL of MES buffer (25 mM MES-Na, 1 mM DTT, pH 5.0) and 1 μL of 1-pyrenemethylamine (10 mM in DMSO, as an internal standard). The mixture was incubated at 37° C. for 10 min. Human liver cathepsin B (20 ng/μL, 100 μL, EMD Millipore) in MES buffer was added to the mixture, followed by incubation at 37° C. Aliquots (10 μL) were collected at each time point (0, 0.5, 1, 3, 24, and 48 h). Cold acetonitrile containing 1% formic acid (40 μL) was added to precipitate proteins. Precipitated proteins were separated by centrifugation (15,000 g, 4° C., 30 min) and supernatant of each sample was analyzed for quantification by analytical HPLC (UV absorption at 342 nm). The amount of each probe was normalized to the peak area of the internal standard. All assays were performed at least three times in technical duplicate, and data shown are representative of the replicates.

| Compound | t1/2 [1] | Slope (RFU/sec) (human cathepsin B) | release of EdDnp in the presence of human cathepsin B (human cathepsin B) | human cathepsin B-mediated cleavage rate (Human liver cathepsin B) |
| --- | --- | --- | --- | --- |
| Ac-Asp-Val-Cit-PABC-Sar-pyrene [probe 12d] | 14.0 h | – | – | – |
| HOCH2CO-Gly-Val-Cit-PABC-Sar-pyrene [probe 12f] | 5.0 h | – | – | – |
| CC(=O)N[C@@H](Cc1c[nH]c2ccccc12)C(=O)N[C@@H](CCCCNC(=O)COCCOCCOCCN=[N+]=[N-])C(=O)NCCOCCOCCOCC(=O)N[C@H](C(=O)N[C@@H](CCCNC(N)=O)C(=O)Nc1ccc(COC(=O)NCCNc2ccc([N+](=O)[O-])cc2[N+](=O)[O-])cc1)C(C)C [probe 2, Ac-Trp-Lys(-PEG3-N3)-PEG3-Val-Cit-PABC-EdDnp] (Ac-WK(X1)[AEEEA]V[Cit][PABC]-EDDnp) | – | 1.81 ± 0.07 RFU/sec | released EdDnp more efficiently than Linear PEG (−) 1 | – |
| Ac-Val-Cit-PABC-Sar-pyrene [probe 12a] | 2.3 h | – | – | – |
| Ac-Lys-Val-Cit-PABC-Sar-pyrene [probe 12e] | 0.9 h | – | – | – |
| CC(=O)N[C@@H](Cc1c[nH]c2ccccc12)C(=O)N[C@@H](CCCCn1cc(CCC(=O)N[C@H](C(=O)N[C@@H](CCCNC(N)=O)C(=O)Nc2ccc(COC(=O)NCCNc3ccc([N+](=O)[O-])cc3[N+](=O)[O-])cc2)C(C)C)nn1)C(=O)N[C@H](C(=O)N[C@@H](CCCNC(N)=O)C(=O)Nc1ccc(COC(=O)NCCNc2ccc([N+](=O)[O-])cc2[N+](=O)[O-])cc1)C(C)C [probe 3] | – | 0.03 ± 0.06 RFU/sec | marginal release of EdDnp | – |
| Ac-Ser-Val-Cit-PABC-Sar-pyrene [probe 12b] | 3.1 h | – | – | comparable with that of VCit probe 12a |
| Ac-Glu-Val-Cit-PABC-Sar-pyrene [probe 12c] | 19.1 h | – | – | – |
| CC(=O)N[C@@H](Cc1c[nH]c2ccccc12)C(=O)N[C@@H](CCCCNC(=O)COCCOCCOCCn1cc(CCC(=O)N[C@H](C(=O)N[C@@H](CCCNC(N)=O)C(=O)Nc2ccc(COC(=O)NCCNc3ccc([N+](=O)[O-])cc3[N+](=O)[O-])cc2)C(C)C)nn1)C(=O)NCCOCCOCCOCC(=O)N[C@H](C(=O)N[C@@H](CCCNC(N)=O)C(=O)Nc1ccc(COC(=O)NCCNc2ccc([N+](=O)[O-])cc2[N+](=O)[O-])cc1)C(C)C [probe 4] | – | 1.56 ± 0.05 RFU/sec | comparable to that of linear PEG (+) probe 2 | – |

Reference: US12084403B2, “Linkers for antibody drug conjugates” (THE BOARD OF REGENTS OF THE UNIVERSITY OF TEXAS SYSTEM, priority 2017, dated 2024)
